Laboratory results from patent publication US20210220300A1 (Strongbridge Dublin Limited, priority 2019, published 2021).
Read-outs that look alike come from different tables or passages of the source.

Tests used:
MATE1 = target: T1, MATE1 (Homo sapiens, UniProt Q96FL8); settings: pH 8.5
T1 sequence (Q96FL8 1-570): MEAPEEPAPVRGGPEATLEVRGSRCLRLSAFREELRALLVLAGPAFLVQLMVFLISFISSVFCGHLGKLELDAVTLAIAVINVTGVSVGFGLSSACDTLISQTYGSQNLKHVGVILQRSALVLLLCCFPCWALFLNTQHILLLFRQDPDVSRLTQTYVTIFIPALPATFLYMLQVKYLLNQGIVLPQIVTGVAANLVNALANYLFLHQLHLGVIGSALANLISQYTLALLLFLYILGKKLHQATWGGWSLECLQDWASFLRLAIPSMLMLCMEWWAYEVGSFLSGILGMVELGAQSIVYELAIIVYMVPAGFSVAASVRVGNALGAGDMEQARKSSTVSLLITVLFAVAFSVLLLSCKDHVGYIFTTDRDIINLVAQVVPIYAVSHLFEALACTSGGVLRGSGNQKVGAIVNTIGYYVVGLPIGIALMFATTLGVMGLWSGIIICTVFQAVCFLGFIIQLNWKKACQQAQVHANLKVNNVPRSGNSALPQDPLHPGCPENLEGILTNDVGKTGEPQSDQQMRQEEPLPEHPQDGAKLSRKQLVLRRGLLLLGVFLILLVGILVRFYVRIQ
Description: (§1) [^14C]-Metformin (1 mM) was provided as a solid and was prepared in Hank's balanced salt solution (HBSS).
(§2) Cells were plated onto standard 24-well tissue culture plates in cell culture medium 1 to 3 days before the experiment. MATE1 and MATE2-K and control cells were incubated with butyric acid (10 mM) for 24 hours before the experiment to inhibit suppression of the transporter.

MATE2-K = MATE2-K (Homo sapiens, UniProt Q86VL8); settings: pH 8.5
MATE2-K, sequence (Q86VL8 1-566 isoform Q86VL8-3): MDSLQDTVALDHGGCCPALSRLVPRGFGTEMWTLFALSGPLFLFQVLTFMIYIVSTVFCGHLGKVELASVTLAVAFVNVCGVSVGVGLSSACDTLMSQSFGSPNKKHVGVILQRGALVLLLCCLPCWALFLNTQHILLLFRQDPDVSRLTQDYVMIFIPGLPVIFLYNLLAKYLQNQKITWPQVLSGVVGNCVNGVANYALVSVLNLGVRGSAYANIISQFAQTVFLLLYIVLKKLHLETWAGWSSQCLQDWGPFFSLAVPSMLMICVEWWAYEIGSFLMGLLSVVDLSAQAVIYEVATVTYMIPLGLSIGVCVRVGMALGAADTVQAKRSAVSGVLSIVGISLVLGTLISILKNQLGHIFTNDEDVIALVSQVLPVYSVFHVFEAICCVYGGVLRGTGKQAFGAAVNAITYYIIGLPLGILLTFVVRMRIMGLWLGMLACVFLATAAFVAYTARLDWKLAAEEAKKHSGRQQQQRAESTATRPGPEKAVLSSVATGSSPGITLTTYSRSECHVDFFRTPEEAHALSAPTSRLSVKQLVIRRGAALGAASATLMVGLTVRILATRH
Description: as §1, §2

BCRP = BCRP inhibition: bidirectional transport of prazosin across MDCKII BCRP and control cells; settings: for % control: corrected efflux ratio, prazosin 1 μM
From the text: MDCKII P-gp, MDCKII BCRP and control MDCKII cells were purchased from the Netherlands Cancer Institute.

OCT1 = target: T2, OCT1 (Homo sapiens, UniProt O15245); settings: for Uptake (Average ± SD), Control / Uptake (Average ± SD), OCT1 / Background corrected uptake rate: human, pH 7.4
T2 sequence (O15245 1-554): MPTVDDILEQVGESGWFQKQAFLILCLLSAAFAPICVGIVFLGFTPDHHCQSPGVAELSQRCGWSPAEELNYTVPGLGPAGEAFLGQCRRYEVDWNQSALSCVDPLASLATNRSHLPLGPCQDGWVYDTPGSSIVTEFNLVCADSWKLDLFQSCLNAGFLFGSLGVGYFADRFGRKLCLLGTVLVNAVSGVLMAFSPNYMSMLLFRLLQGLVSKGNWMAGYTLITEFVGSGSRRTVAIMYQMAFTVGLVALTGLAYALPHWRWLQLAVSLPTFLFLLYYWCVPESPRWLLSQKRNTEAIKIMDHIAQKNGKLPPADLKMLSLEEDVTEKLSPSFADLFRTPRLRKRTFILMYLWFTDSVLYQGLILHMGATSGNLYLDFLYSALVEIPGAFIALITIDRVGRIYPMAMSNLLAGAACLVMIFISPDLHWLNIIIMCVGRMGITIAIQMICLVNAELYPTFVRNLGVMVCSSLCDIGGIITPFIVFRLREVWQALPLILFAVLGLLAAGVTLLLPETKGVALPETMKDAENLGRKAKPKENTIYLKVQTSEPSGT
Description: as §1, §2

P-gp [1] = target: T3, P-gp (Homo sapiens, UniProt P08183)
T3 sequence (P08183 whole entry): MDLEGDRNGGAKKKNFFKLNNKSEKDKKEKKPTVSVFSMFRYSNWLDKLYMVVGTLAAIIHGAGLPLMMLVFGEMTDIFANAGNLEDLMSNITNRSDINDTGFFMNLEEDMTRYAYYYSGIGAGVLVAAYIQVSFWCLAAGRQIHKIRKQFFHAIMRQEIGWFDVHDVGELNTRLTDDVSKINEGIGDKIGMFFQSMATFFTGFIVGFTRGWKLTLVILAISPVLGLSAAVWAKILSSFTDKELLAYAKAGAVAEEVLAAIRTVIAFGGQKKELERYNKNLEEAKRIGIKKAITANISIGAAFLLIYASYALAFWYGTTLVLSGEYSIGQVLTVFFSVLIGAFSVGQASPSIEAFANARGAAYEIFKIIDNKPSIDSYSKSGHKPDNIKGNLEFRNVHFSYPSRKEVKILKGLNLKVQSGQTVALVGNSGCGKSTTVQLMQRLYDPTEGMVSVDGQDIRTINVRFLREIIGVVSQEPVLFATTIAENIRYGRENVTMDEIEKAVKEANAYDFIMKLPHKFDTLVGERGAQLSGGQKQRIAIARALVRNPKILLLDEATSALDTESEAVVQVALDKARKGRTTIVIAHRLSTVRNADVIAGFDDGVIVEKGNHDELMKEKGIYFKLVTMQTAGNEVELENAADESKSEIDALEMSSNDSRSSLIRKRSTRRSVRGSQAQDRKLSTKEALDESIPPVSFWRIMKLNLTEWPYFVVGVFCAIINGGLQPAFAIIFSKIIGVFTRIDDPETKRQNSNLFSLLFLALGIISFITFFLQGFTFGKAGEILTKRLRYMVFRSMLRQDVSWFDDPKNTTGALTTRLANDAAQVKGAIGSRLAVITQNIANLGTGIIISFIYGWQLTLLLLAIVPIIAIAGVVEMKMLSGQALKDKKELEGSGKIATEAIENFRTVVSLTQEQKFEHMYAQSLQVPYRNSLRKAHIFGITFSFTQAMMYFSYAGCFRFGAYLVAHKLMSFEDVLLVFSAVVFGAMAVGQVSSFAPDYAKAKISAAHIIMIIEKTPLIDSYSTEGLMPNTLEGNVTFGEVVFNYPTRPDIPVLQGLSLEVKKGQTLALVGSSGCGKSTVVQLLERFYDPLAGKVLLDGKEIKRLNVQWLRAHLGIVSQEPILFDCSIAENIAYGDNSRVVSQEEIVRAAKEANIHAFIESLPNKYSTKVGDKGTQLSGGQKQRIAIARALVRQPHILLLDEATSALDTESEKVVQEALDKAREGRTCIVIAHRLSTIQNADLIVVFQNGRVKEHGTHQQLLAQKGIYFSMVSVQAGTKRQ

[2] = cited from earlier work
[3] = cited from earlier work; remark: listed apart in the source
P-gp [4] = target: T3, P-gp; experiment: P-gp inhibition: bidirectional transport of digoxin across Caco-2 cells

For CCc1nc(N)nc(N)c1-c1ccc(Cl)cc1 [Pyrimethamine], the “Background corrected uptake rate” value (MATE1; 0.1 μM) was 11.7 pmol/mg/min, the “Uptake (Average ± SD), Control” value (MATE1; 0.1 μM) was 4.24 ± 0.72 pmol/mg protein and the “Uptake (Average ± SD), MATE1” value (MATE1; 0.1 μM) was 62.8 ± 4.0 pmol/mg protein. For the same molecule, the “Background corrected uptake rate” value (MATE2-K; 0.3 μM) was 14.0 pmol/mg/min, the “Uptake (Average ± SD), Control” value (MATE2-K; 0.3 μM) was 5.59 ± 0.88 pmol/mg protein and the “Uptake (Average ± SD), MATE2-K” value (MATE2-K; 0.3 μM) was 75.6 ± 16.7 pmol/mg protein.
In the case of NS(=O)(=O)c1cc(Cl)c(Cl)c(S(N)(=O)=O)c1 [Dichlorphenamide, 4,5-dichloro-1,3-benzenedisulfonamide], the “% control” value (BCRP; inhibitor 1000 μM) was 60.0%, the “Control cells Recovery (%) A:B” value (BCRP; dog, MDCK, 120 min, 1000 μM) was 84.7% and the “Control cells Recovery (%) B:A” value (BCRP; dog, MDCK, 120 min, 1000 μM) was 77.0%. For the same molecule, the “MDCKII-BCRP cells Recovery (%) A:B” value (BCRP; human, 120 min, 1000 μM) was 93.0%, the “MDCKII-BCRP cells Recovery (%) B:A” value (BCRP; human, 120 min, 1000 μM) was 83.7% and the “Uptake (Average ± SD), Control” value (MATE1; 1 μM) was 6.66 ± 1.31 pmol/mg protein. The “Uptake (Average ± SD), MATE1” value (MATE1; 1 μM) was 436 ± 23 pmol/mg protein, the “Uptake (Average ± SD), Control” value (MATE1; 3 μM) was 6.75 ± 1.65 pmol/mg protein and the “Uptake (Average ± SD), MATE1” value (MATE1; 3 μM) was 401 ± 7 pmol/mg protein. The “Uptake (Average ± SD), Control” value (MATE1; 10 μM) was 7.43 ± 1.34 pmol/mg protein, the “Uptake (Average ± SD), MATE1” value (MATE1; 10 μM) was 406 ± 12 pmol/mg protein and the “Uptake (Average ± SD), Control” value (MATE1; 30 μM) was 6.79 ± 0.89 pmol/mg protein. For the same molecule, the “Uptake (Average ± SD), MATE1” value (MATE1; 30 μM) was 432 ± 10 pmol/mg protein, the “Uptake (Average ± SD), Control” value (MATE1; 100 μM) was 7.52 ± 0.96 pmol/mg protein and the “Uptake (Average ± SD), MATE1” value (MATE1; 100 μM) was 421 ± 17 pmol/mg protein. The “Uptake (Average ± SD), Control” value (MATE1; 300 μM) was 5.56 ± 0.16 pmol/mg protein, the “Uptake (Average ± SD), MATE1” value (MATE1; 300 μM) was 398 ± 17 pmol/mg protein and the “Uptake (Average ± SD), Control” value (MATE1; 1000 μM) was 5.52 ± 0.21 pmol/mg protein. The “Uptake (Average ± SD), MATE1” value (MATE1; 1000 μM) was 379 ± 13 pmol/mg protein, the “Uptake (Average ± SD), Control” value (MATE2-K; 1 μM) was 9.21 ± 0.93 pmol/mg protein and the “Uptake (Average ± SD), MATE2-K” value (MATE2-K; 1 μM) was 149 ± 29 pmol/mg protein. The “Uptake (Average ± SD), Control” value (MATE2-K; 3 μM) was 9.44 ± 2.27 pmol/mg protein, the “Uptake (Average ± SD), MATE2-K” value (MATE2-K; 3 μM) was 159 ± 19 pmol/mg protein and the “Uptake (Average ± SD), Control” value (MATE2-K; 10 μM) was 8.28 ± 1.46 pmol/mg protein. For the same molecule, the “Uptake (Average ± SD), MATE2-K” value (MATE2-K; 10 μM) was 113 ± 8 pmol/mg protein, the “Uptake (Average ± SD), Control” value (MATE2-K; 30 μM) was 8.51 ± 1.05 pmol/mg protein and the “Uptake (Average ± SD), MATE2-K” value (MATE2-K; 30 μM) was 124 ± 36 pmol/mg protein. For the same molecule, the “Uptake (Average ± SD), Control” value (MATE2-K; 100 μM) was 9.21 ± 1.52 pmol/mg protein, the “Uptake (Average ± SD), MATE2-K” value (MATE2-K; 100 μM) was 137 ± 15 pmol/mg protein and the “Uptake (Average ± SD), Control” value (MATE2-K; 300 μM) was 8.86 ± 0.93 pmol/mg protein. For the same molecule, the “Uptake (Average ± SD), MATE2-K” value (MATE2-K; 300 μM) was 166 ± 16 pmol/mg protein, the “Uptake (Average ± SD), Control” value (MATE2-K; 1000 μM) was 5.13 ± 0.40 pmol/mg protein and the “Uptake (Average ± SD), MATE2-K” value (MATE2-K; 1000 μM) was 106 ± 29 pmol/mg protein. The “% control” value (OCT1; [14C]-tetraethylammonium bromide 5 μM, inhibitor 10 μM) was 90.6%, the “Uptake (Average ± SD), Control” value (OCT1; 1 μM) was 4.28 ± 1.48 pmol/mg protein and the “Uptake (Average ± SD), OCT1” value (OCT1; 1 μM) was 121 ± 11 pmol/mg protein. The “Uptake (Average ± SD), Control” value (OCT1; 3 μM) was 4.44 ± 1.97 pmol/mg protein, the “Uptake (Average ± SD), OCT1” value (OCT1; 3 μM) was 125 ± 5 pmol/mg protein and the “Uptake (Average ± SD), Control” value (OCT1; 10 μM) was 4.28 ± 0.92 pmol/mg protein. The “Uptake (Average ± SD), OCT1” value (OCT1; 10 μM) was 111 ± 4 pmol/mg protein, the “Uptake (Average ± SD), Control” value (OCT1; 30 μM) was 3.88 ± 0.48 pmol/mg protein and the “Uptake (Average ± SD), OCT1” value (OCT1; 30 μM) was 122 ± 14 pmol/mg protein. The “Uptake (Average ± SD), Control” value (OCT1; 100 μM) was 4.12 ± 0.73 pmol/mg protein, the “Uptake (Average ± SD), OCT1” value (OCT1; 100 μM) was 128 ± 6 pmol/mg protein and the “Background corrected uptake rate” value (OCT1; 300 μM) was 8.40 pmol/mg/min. The “Uptake (Average ± SD), Control” value (OCT1; 300 μM) was 3.88 ± 1.11 pmol/mg protein, the “Uptake (Average ± SD), OCT1” value (OCT1; 300 μM) was 130 ± 10 pmol/mg protein and the “Background corrected uptake rate” value (OCT1; 1000 μM) was 5.00 pmol/mg/min. The “Uptake (Average ± SD), Control” value (OCT1; 1000 μM) was 2.99 ± 1.46 pmol/mg protein, the “Uptake (Average ± SD), OCT1” value (OCT1; 1000 μM) was 77.9 ± 3.0 pmol/mg protein and the “Papp A:B of digoxin (Average)” value (P-gp [1]; Caco-2) was 0.337 (n = 2) × 10^−6 cm/sec. The “% control” value (P-gp [1]; human, 120 min, 3 μM) was 74.0%, the “Solubility in dilute solutions of sodium carbonate and sodium hydroxide” value [2] was “soluble” and the Storage stability [3] was “at least 36 months”.
For Cc1cccc(C)c1OCC(=O)N[C@@H](Cc1ccccc1)[C@@H](O)C[C@H](Cc1ccccc1)NC(=O)[C@H](C(C)C)N1CCCNC1=O [Lopinavir], the “% control” value (BCRP; inhibitor 30 μM) was 0%.
For CN/C(=N/CCSCc1nc[nH]c1C)NC#N [Cimetidine], the “Uptake (Average ± SD), Control” value (MATE1; 10 μM) was 5.20 ± 0.63 pmol/mg protein, the “Uptake (Average ± SD), MATE1” value (MATE1; 10 μM) was 85.2 ± 7.8 pmol/mg protein and the “Uptake (Average ± SD), Control” value (MATE2-K; 300 μM) was 7.34 ± 0.20 pmol/mg protein. The “Uptake (Average ± SD), MATE2-K” value (MATE2-K; 300 μM) was 32.3 ± 11.7 pmol/mg protein.
For C/C=C/C[C@@H](C)C(=O)[C@H]1C(=O)N[C@@H](C(C)C)C(=O)N(C)CC(=O)N(C)[C@@H](CC(C)C)C(=O)N[C@@H](C(C)C)C(=O)N(C)[C@@H](CC(C)C)C(=O)N[C@@H](C)C(=O)N[C@H](C)C(=O)N(C)[C@@H](CC(C)C)C(=O)N(C)[C@@H](CC(C)C)C(=O)N(C)[C@@H](C(C)C)C(=O)N1C [Valspodar], the “Papp A:B of digoxin (Average ± SD)” value (P-gp [4]) was 9.12 ± 1.34 × 10^−6 cm/sec and the “Papp B:A of digoxin (Average ± SD)” value (P-gp [4]) was 10.0 ± 2.5 × 10^−6 cm/sec.
With C=C[C@H]1C[N@@]2CC[C@H]1C[C@@H]2[C@@H](O)c1ccnc2ccc(OC)cc12 [Quinidine] the “Background corrected uptake rate” value (OCT1; 100 μM) was 1.64 pmol/mg/min.
